Experimental findings from patent US20230250108A1, “TETRAHYDROISOQUINOLINE COMPOUNDS AND USE THEREOF” (JIANGSU SIMCERE PHARMACEUTICAL CO., LTD., priority 2020, published 2023) are described below.

The structures appear in SMILES notation. Structures can show the parent of a compound that is named as a salt.

T1 sequence (O14744 2-637 limits assumed): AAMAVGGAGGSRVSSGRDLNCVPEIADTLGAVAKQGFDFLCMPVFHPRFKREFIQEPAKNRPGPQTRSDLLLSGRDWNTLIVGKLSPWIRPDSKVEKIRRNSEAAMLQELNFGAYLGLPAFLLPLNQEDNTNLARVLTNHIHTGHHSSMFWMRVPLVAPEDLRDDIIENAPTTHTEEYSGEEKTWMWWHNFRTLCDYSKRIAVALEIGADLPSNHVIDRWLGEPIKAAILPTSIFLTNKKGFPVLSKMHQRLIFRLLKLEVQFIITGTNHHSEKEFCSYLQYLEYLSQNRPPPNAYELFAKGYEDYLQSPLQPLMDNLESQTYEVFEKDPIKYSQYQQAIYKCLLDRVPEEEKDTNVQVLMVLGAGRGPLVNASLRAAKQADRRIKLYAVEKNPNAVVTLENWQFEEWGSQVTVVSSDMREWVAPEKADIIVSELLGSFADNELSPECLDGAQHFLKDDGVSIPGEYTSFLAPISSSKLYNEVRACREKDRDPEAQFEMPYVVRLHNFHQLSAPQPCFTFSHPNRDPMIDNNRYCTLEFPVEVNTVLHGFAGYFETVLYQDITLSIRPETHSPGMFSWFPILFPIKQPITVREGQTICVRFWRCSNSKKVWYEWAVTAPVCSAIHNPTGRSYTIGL
T1 sequence (Q9BQA1 2-342 partner limits assumed): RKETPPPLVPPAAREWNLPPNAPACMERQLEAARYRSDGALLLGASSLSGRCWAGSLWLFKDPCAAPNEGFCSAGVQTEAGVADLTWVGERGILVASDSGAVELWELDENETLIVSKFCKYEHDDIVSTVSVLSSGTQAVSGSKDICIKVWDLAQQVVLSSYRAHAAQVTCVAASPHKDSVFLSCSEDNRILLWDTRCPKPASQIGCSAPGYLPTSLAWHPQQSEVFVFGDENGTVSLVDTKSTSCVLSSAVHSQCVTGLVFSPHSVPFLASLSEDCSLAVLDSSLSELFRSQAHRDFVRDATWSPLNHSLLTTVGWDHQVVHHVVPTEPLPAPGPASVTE

One assay has as its target T1, PRMT5/MEP50 (Homo sapiens, UniProt O14744).
T1 construct: purchased BPS Bioscience Inc. (USA)
The assay is described as follows: PRMT5 enzymatic activity inhibition experiment (AlphaScreen). In kind it is biochemical. The following applies: PRMT5/MEP50, Histone H4 peptide substrate; read-out: Inhibition of enzymatic activity IC50. The text has this: Materials: PRMT5/MEP50 proteins were purchased from BPS Bioscience Inc. (USA); Histone H4 Peptide substrate was purchased from Sangon Biotech (Shanghai) Co., Ltd.; Anti-Histone H4 (symmetric dimethyl R3) antibody—ChIP Grade was purchased from Abcam PLC. (USA); S-(5′-Adenosyl)-L-methionine chloride dihydrochloride was purchased from Sigma PLC. (USA); 384-well plate, AlphaScreen Streptavidin Donor beads, AlphaScreen Protein A Acceptor beads, and Envision 2104 multi-label Reader were purchased from Perkin-Elmer Instruments (USA) Corporation; and Echo 550 Liquid Handler was purchased from Labcyte Inc. (USA).
Enzymatic activity assay: The compounds were added into a 384-well plate by using the Echo 550 Liquid Handler with the final concentration of 0-1000 nM (initial concentration: 1000 nM, 3-fold dilution, for 10 points), and the DMSO content was 0.5%. 10 μL of a 2× PRMT5/MEP50 solution was added into each well and incubated at room temperature for 30 minutes. 10 μL of 2× PRMT5/MEP50 substrate solution was added to each well to start the reaction and incubated at room temperature for 60 minutes. A 6× detection reagent containing AlphaScreen Protein A Acceptor beads and Anti-Histone H4 (symmetric dimethyl R3) antibodies was prepared and 5 μL was added to each well. The plate was incubated at room temperature for 60 minutes. A 6× detection reagent containing AlphaScreen Streptavidin Donor beads was prepared and 5 μL was added to each well. The plate was incubated at room temperature for 60 minutes. The signal values were detected by using the Envision.
A general note: Bead proximity is the source of the signal in Alpha formats.
In the case of `O=C1c2ccc(C(=O)N3C4CCC3COC4)cc2OCCN1C[C@@H](O)[C@@H]1Cc2ccccc2CN1` [Compound 007, 8-(3-oxa-8-azabicyclo[3.2.1]octane-8-carbonyl)-4-((R)-2-hydroxy-2-((S)-1,2,3,4-tetrahydroisoquinolin-3-yl)ethyl)-3,4-dihydrobenzo[f][1,4]oxazepin-5(2H)-one], the IC50 was found to be 7.66 nM.

A further assay has as its system Z-138 cells. The assay is described as follows: Inhibitory activity on tumor cell proliferation (Cell-Titer Glo, 8 days). It counts as cell-based. The note with it: Homo sapiens, 192 h, read-out: Inhibition of cell proliferation Z-138 IC50. How it is done: Materials and cells: Z-138 cells were purchased from ATCC (USA); IMDM medium and penicillin-streptomycin were purchased from Sigma PLC. (USA); horse serum was purchased from Hyclone (USA); 96-well plate was purchased from Corning (USA); and Cell-Titer Glo reagent was purchased from Promega (USA).
Cell culture: Z-138 cells were cultured in an IMDM culture solution containing 10% Horse serum+1% penicillin−streptomycin at 37° C., 5% CO2. Cells in logarithmic growth phase were suitable for the experiment.
Detection of cell proliferation activity: The inhibitory activities of the compounds on the proliferation of Z-138 cells were detected by using the Cell-Titer Glo reagent. The concentrations of the cells were adjusted, and 180 μL was inoculated in each well of the 96-well plate (500/well) and equilibrated for 10-15 minutes at 37° C., 5% CO2. 20 μL of a culture solution containing the compounds was added into each well with the final concentration reaching 0-300 nM (initial concentration: 300 nM, 3-fold dilution, for 10 points), and the DMSO content was 0.1%. The cell plate was placed at 37° C., 5% CO2 and incubated for 8 days. Culture solution was replaced at day 4: 100 μL of the supernatant was slowly aspirated and 100 μL of a fresh culture solution containing the compounds was provided as a supplement while the concentrations of the compounds were held constant. The cell viability was detected by using the Cell-Titer Glo reagent.
With `O=C1c2ccc(C(=O)N3C4CCC3COC4)cc2OCCN1C[C@@H](O)[C@@H]1Cc2ccccc2CN1` [Compound 007, 8-(3-oxa-8-azabicyclo[3.2.1]octane-8-carbonyl)-4-((R)-2-hydroxy-2-((S)-1,2,3,4-tetrahydroisoquinolin-3-yl)ethyl)-3,4-dihydrobenzo[f][1,4]oxazepin-5(2H)-one], the IC50 was determined as 7.55 nM.

As for `CCN1CCN(C[C@@H](O)[C@@H]2Cc3ccccc3CN2)C(=O)c2ccc(C(=O)N3CCC4(CCOCC4)C3)cc21` [Compound 010, 1-ethyl-4-((R)-2-hydroxy-2-((S)-1,2,3,4-tetrahydroisoquinolin-3-yl)ethyl)-8-(8-oxa-2-azaspiro[4.5]decane-2-carbonyl)-1,2,3,4-tetrahydro-5H-benzo[e][1,4]diazepin-5-one hydrochloride], the IC50 was determined as 1.93 nM.

As to `CCN1CCN(C[C@@H](O)[C@@H]2Cc3ccccc3CN2)C(=O)c2ccc(C(=O)N3CC4(CCC(OC)CC4)C3)cc21` [Compound 011, 1-ethyl-4-((R)-2-hydroxy-2-((S)-1,2,3,4-tetrahydroisoquinolin-3-yl)ethyl)-8-(7-methoxy-2-azaspiro[3.5]nonane-2-carbonyl)-1,2,3,4-tetrahydro-5H-benzo[e][1,4]diazepin-5-one hydrochloride], the IC50 was found to be 2.2 nM.

Consider `CCN1CCN(C[C@@H](O)[C@@H]2Cc3ccccc3CN2)C(=O)c2ccc(C(=O)N3CCC4(CC4)C(F)(F)C3)cc21` [Compound 012, 8-(4,4-difluoro-6-azaspiro[2.5]octane-6-carbonyl)-1-ethyl-4-((R)-2-hydroxy-2-((S)-1,2,3,4-tetrahydroisoquinolin-3-yl)ethyl)-1,2,3,4-tetrahydro-5H-benzo[e][1,4]diazepin-5-one hydrochloride], for which the IC50 worked out at 4.09 nM.

Turning to `CCN1CCN(C[C@@H](O)[C@@H]2Cc3ccccc3CN2)C(=O)c2ccc(C(=O)N3CCC4(CC3)CC4(F)F)cc21` [Compound 013, 8-(1,1-difluoro-6-azaspiro[2.5]octane-6-carbonyl)-1-ethyl-4-((R)-2-hydroxy-2-((S)-1,2,3,4-tetrahydroisoquinolin-3-yl)ethyl)-1,2,3,4-tetrahydro-5H-benzo[e][1,4]diazepin-5-one hydrochloride], the IC50 came to 2.37 nM.

Regarding `CCN1CCN(C[C@@H](O)[C@@H]2Cc3ccccc3CN2)C(=O)c2ccc(C(=O)N3CCOCC3)cc21` [Compound 014, 1-ethyl-4-((R)-2-hydroxy-2-((S)-1,2,3,4-tetrahydroisoquinolin-3-yl)ethyl)-8-(morpholine-4-carbonyl)-1,2,3,4-tetrahydro-5H-benzo[e][1,4]diazepin-5-one hydrochloride], the IC50 came out at 11.7 nM.

`CCN1CCN(C[C@@H](O)[C@@H]2Cc3ccccc3CN2)C(=O)c2ccc(C(=O)N3CCN(C(C)=O)CC3)cc21` [Compound 015, 8-(4-acetylpiperazine-1-carbonyl)-1-ethyl-4-((R)-2-hydroxy-2-((S)-1,2,3,4-tetrahydroisoquinolin-3-yl)ethyl)-1,2,3,4-tetrahydro-5H-benzo[e][1,4]diazepin-5-one hydrochloride]: the IC50 is 11.1 nM.

For `CCN1CCN(C[C@@H](O)[C@@H]2Cc3ccccc3CN2)C(=O)c2ccc(C(=O)N(C)Cc3ccccc3)cc21` [Compound 016, N-benzyl-1-ethyl-4-((R)-2-hydroxy-2-((S)-1,2,3,4-tetrahydroisoquinolin-3-yl)ethyl)-N-methyl-5-oxo-2,3,4,5-tetrahydro-1H-benzo[e][1,4]diaza-8-carboxamide hydrochloride], the IC50 turned out to be 45.1 nM.

With `CCN1CCN(C[C@@H](O)[C@@H]2Cc3ccccc3CN2)C(=O)c2ccc(C(=O)N(C)CCc3ccc(F)cc3)cc21` [Compound 017, 1-ethyl-N-(4-fluorophenethyl)-4-((R)-2-hydroxy-2-((S)-1,2,3,4-tetrahydroisoquinolin-3-yl)ethyl)-N-methyl-5-oxo-2,3,4,5-tetrahydro-1H-benzo[e][1,4]diazepine-8-carboxamide hydrochloride], the IC50 was 27.6 nM.

`CCN1CCN(C[C@@H](O)[C@@H]2Cc3ccccc3CN2)C(=O)c2ccc(C(=O)N(C)CCc3cccnc3)cc21` [Compound 018, 1-ethyl-4-((R)-2-hydroxy-2-((S)-1,2,3,4-tetrahydroisoquinolin-3-yl)ethyl)-N-methyl-5-oxo-N-(2-(pyridin-3-yl)ethyl)-2,3,4,5-tetrahydro-1H-benzo[e][1,4]diazepine-8-carboxamide hydrochloride]: the IC50 is 26 nM.

`CCN(CC)C(=O)c1ccc2c(c1)N(CC)CCN(C[C@@H](O)[C@@H]1Cc3ccccc3CN1)C2=O` [Compound 019, N,N,1-triethyl-4-((R)-2-hydroxy-2-((S)-1,2,3,4-tetrahydroisoquinolin-3-yl)ethyl)-5-oxo-2,3,4,5-tetrahydro-1H-benzo[e][1,4]diazepine-8-carboxamide hydrochloride]: the IC50 amounted to 20.4 nM.

Take `CCN1CCN(C[C@@H](O)[C@@H]2Cc3ccccc3CN2)C(=O)c2ccc(C(=O)N3C4CCCC3COC4)cc21` [Compound 020, 8-(3-oxa-9-azabicyclo[3,3,1]nonane-9-carbonyl)-1-ethyl-4-((R)-2-hydroxy-2-((S)-1,2,3,4-tetrahydroisoquinolin-3-yl)ethyl)-1,2,3,4-tetrahydro-5H-benzo[e][1,4]diazepin-5-one hydrochloride]: the IC50 worked out at 3.71 nM.

Regarding `CCN1CCN(C[C@@H](O)[C@@H]2Cc3ccccc3CN2)C(=O)c2ccc(C(=O)N3CCC4(CC3)CC(N(C)C)C4)cc21` [Compound 021, 8-(2-(dimethylamino)-7-azaspiro[3.5]nonane-7-carbonyl)-1-ethyl-4-((R)-2-hydroxy-2-((S)-1,2,3,4-tetrahydroisoquinolin-3-yl)ethyl)-1,2,3,4-tetrahydro-5H-benzo[e][1,4]diazepin-5-one hydrochloride], the IC50 was determined as 8.35 nM.

With `CCN1CCN(C[C@@H](O)[C@@H]2Cc3ccccc3CN2)C(=O)c2ccc(C(=O)N3C4CCC3CC(O)C4)cc21` (stereo partly drawn) [Compound 022, 1-ethyl-4-((R)-2-hydroxy-2-((S)-1,2,3,4-tetrahydroisoquinolin-3-yl)ethyl)-8-(3-hydroxy-8-azabicyclo[3.2.1]octane-8-carbonyl)-1,2,3,4-tetrahydro-5H-benzo[e][1,4]diazepin-5-one hydrochloride], the IC50 was found to be 14.7 nM.

Regarding `CCN1CCN(C[C@@H](O)[C@@H]2Cc3ccccc3CN2)C(=O)c2ccc(C(=O)N3CC4COCC4C3)cc21` (stereo partly drawn) [Compound 023, 1-ethyl-8-(hexahydro-1H-furo[3,4-c]pyrrole-5-carbonyl)-4-((R)-2-hydroxy-2-((S)-1,2,3,4-tetrahydroisoquinolin-3-yl)ethyl)-1,2,3,4-tetrahydro-5H-benzo[e][1,4]diazepin-5-one hydrochloride], the IC50 stood at 16.8 nM.

`CCN1CCN(C[C@@H](O)[C@@H]2Cc3ccccc3CN2)C(=O)c2ccc(C(=O)N3CC4(COC4)C3)cc21` [Compound 025, 1-ethyl-4-((R)-2-hydroxy-2-((S)-1,2,3,4-tetrahydroisoquinolin-3-yl)ethyl)-8-(2-oxa-6-azaspiro[3.3]heptane-6-carbonyl)-1,2,3,4-tetrahydro-5H-benzo[e][1,4]diazepin-5-one]: the IC50 stood at 138 nM.

With `CCN1CCN(C[C@@H](O)[C@@H]2Cc3ccccc3CN2)C(=O)c2ccc(C(=O)N3CCC4(CC3)CC(=O)C4)cc21` [Compound 026, 1-ethyl-4-((R)-2-hydroxy-2-((S)-1,2,3,4-tetrahydroisoquinolin-3-yl)ethyl)-8-(2-oxo-7-azaspiro[3.5]nonane-7-carbonyl)-1,2,3,4-tetrahydro-5H-benzo[e][1,4]diazepin-5-one], the IC50 worked out at 5.62 nM.

`Cl.[2H]C([2H])([2H])OC1CC2(CCN(C(=O)c3ccc4c(c3)N(CC)CCN(C[C@@H](O)[C@@H]3Cc5ccccc5CN3)C4=O)CC2)C1` [Compound 027, 1-ethyl-4-((R)-2-hydroxy-2-((S)-1,2,3,4-tetrahydroisoquinolin-3-yl)ethyl)-8-(2-(methoxy-d3)-7-azaspiro[3.5]nonane-7-carbonyl)-1,2,3,4-tetrahydro-5H-benzo[e][1,4]diazepin-5-one hydrochloride]: the IC50 was determined as 2.36 nM.
